# Measurements reported in patent US20240174690A1, “ANNULATED 2-AMINO-3-CYANO THIOPHENES AND DERIVATIVES FOR THE TREATMENT OF CANCER” (BOEHRINGER INGELHEIM INTERNATIONAL GMBH, priority 2021, published 2024).
# Read-outs that look alike come from different tables or passages of the source.
# Tests used:
# [1] = target: CYP3A4 (Homo sapiens (Human), UniProt P08684); experiment: Mechanism based inhibition of CYP3A4 assay (MBI 3A4); assay type: in vitro ADME; settings: hydroxy-midazolam formation after 30 min vs 0 min preincubation, 25 uM, human liver microsomes
# Sequence of CYP3A4 (P08684 whole entry): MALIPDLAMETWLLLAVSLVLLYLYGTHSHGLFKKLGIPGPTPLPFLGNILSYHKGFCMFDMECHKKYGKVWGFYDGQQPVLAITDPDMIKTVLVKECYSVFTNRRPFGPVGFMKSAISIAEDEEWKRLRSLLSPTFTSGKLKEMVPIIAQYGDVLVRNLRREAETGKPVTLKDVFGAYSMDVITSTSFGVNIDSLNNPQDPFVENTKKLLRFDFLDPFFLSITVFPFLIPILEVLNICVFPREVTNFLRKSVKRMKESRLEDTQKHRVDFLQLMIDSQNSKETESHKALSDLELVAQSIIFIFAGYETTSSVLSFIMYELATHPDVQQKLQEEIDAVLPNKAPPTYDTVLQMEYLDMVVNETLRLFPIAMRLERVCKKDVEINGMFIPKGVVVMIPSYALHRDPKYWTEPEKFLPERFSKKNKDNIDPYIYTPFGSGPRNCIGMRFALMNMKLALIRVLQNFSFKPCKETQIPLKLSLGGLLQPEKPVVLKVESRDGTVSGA
# Method in brief: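 Readout is hydroxy-midazolam formed after 30 min preincubation relative to 0 min, measured by LC/MS-MS after acetonitrile quench. Following preincubation, samples diluted 1:10 and incubated 15 min with midazolam substrate.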
# [2] = system: AsPC-1 cells; experiment: AsPC-1 CTG proliferation assay (120 h) (pancreatic cancer, G12D); assay type: cell-based; settings: Homo sapiens, ASPC1
# Method in brief: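 CellTiter-Glo luminescence, normalised to DMSO wells, measured viability after 120 h compound exposure. Cells were AsPC-1 pancreatic cancer (G12D) plated at 2000 per well in RPMI/10% FCS the day before dosing. IC50 derived by four-parameter regression.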
# [3] = system: MKN1 cells; experiment: MKN1 CTG proliferation assay (120 h) (gastric cancer, wt amplified); assay type: cell-based; settings: Homo sapiens
# Procedure: MKN1 CTG Proliferation Assay (120 h) (Gastric Cancer, Wt Amplified)
# MKN1 cells (JCRB0252) are dispensed into white 384-well plates, flat and white bottom (Corning Costar, PNr.: 3570) at a density of 400 cells per well in 50 μL RPMI 1640 (PAN-Biotech, PNr.: P04-18047)+10% FCS (HyClone, PNr.: SH30084.03) (assay 1) or into white 384-well plates, flat and white bottom (Perkin Elmer, 6007680) at a density of 500 cells per well in 40 μl RPMI (Gibco, PNr.: 21875034)+10% FCS (HyClone, PNr.: SH30084.03) (assay 2) or into black 384-well plates, flat and clear bottom (Greiner, PNr. 781091) at a density of 200 cells per well in 60 μl RPMI-1640 (Gibco #A10491)+10% FCS (HyClone, PNr.: SH30084.03)+PenStrep (Gibco, PNr.15140-122) (assay 3). […] Compounds (10 mM stock in DMSO) are added at logarithmic dose series using the HP Digital Dispenser D300 (Tecan) (assay 1+2) or the ECHO acoustic liquid handler system (Beckman Coulter) (assay 3), including DMSO controls and normalizing for added DMSO. Plates are incubated for 120 h, and cell viability is measured using CellTiter-Glo luminescent cell viability reagent (Promega product code G7570). Viability (stated as percent of control) is defined as relative luminescence units RLU of each well divided by the RLU of cells in DMSO controls. IC50 values are determined from viability measurements by non-linear regression using a four-parameter model.
# [4] = MKN-1, assay 1, CTG 120 h, read-out: MKN1 (assay 1) IC50
# [5] = MKN-1, assay 3, CTG 120 h, read-out: MKN1 (assay 3) IC50
SMILES,MBI 3A4 [1] [%],IC50 [2] [nM],"IC50 [3, 4] [nM]","IC50 [3, 5] [nM]","IC50 ([3]; MKN-1, assay 2, CTG 120 h, read-out: MKN1 (assay 2) IC50) [nM]"
C[C@H](Oc1cc(-c2ccn(Cc3ncco3)n2)nc(-c2noc3c2CCC[C@@]32CCCc3sc(N)c(C#N)c32)n1)[C@@H]1CCCN1C [II-128],60,2100,–,–,–
C[C@H]1CNCCCN1c1cc(-c2ccn(C)n2)nc(-c2noc3c2CCC[C@@]32CCCc3sc(N)c(C#N)c32)n1 [II-140],–,21600,–,–,–
C[C@H](Oc1cc(N2CC3COCC(C2)N3)nc(-c2noc3c2CCC[C@@]32CCCc3sc(N)c(C#N)c32)n1)[C@@H]1CCCN1C [II-160],–,3220,–,–,–
C[C@H](Oc1cc(N2Cc3cnn(C)c3C2)nc(-c2onc3c2CCC[C@@]32CCCc3sc(N)c(C#N)c32)n1)[C@@H]1CCCN1C [I-19],–,3000,–,–,–
C[C@H](Oc1cc(-n2nccc2-c2ccncc2)nc(-c2noc3c2CCC[C@@]32CCCc3sc(N)c(C#N)c32)n1)[C@@H]1CCCN1C [II-131],–,3520,–,–,–
CNC1CCN(c2cc(O[C@@H](C)[C@@H]3CCCN3C)nc(-c3noc4c3CCC[C@@]43CCCc4sc(N)c(C#N)c43)n2)CC1 [II-214],–,3520,–,–,–
C[C@H](Oc1cc(-n2cncc3ccnc2-3)nc(-c2onc3c2CCC[C@@]32CCCc3sc(N)c(C#N)c32)n1)[C@@H]1CCCN1C [I-14],83,3410,–,–,–
C[C@H](Oc1cc(-n2cc3ccn([C@@H](C)c4ccccn4)c(=O)c3n2)nc(-c2noc3c2CCC[C@@]32CCCc3sc(N)c(C#N)c32)n1)[C@@H]1CCCN1C [II-205],–,1310,–,33,–
C[C@H](Oc1cc(-n2cncn2)nc(-c2onc3c2CCC[C@@]32CCCc3sc(N)c(C#N)c32)n1)[C@@H]1CCCN1C [I-18],58,7070,–,–,–
CC(=O)N1CCN(c2cc(O[C@@H](C)[C@@H]3CCCN3C)nc(-c3noc4c3CCC[C@@]43CCCc4sc(N)c(C#N)c43)n2)CC12CC2 [II-178],–,814,–,–,–
CC(C)N1CCCN(c2cc(-c3ccn(C)n3)nc(-c3noc4c3CCC[C@@]43CCCc4sc(N)c(C#N)c43)n2)[C@@H](C)C1 [II-170],70,3590,–,–,–
CO[C@@H]1C[C@@H]([C@H](C)Oc2cc(-c3cnn(C)n3)nc(-c3onc4c3CCC[C@@]43CCCc4sc(N)c(C#N)c43)n2)N(C)C1 [I-17],–,9850,–,–,–
C[C@H](Oc1cc(-n2cc(-c3cncs3)nn2)nc(-c2noc3c2CCC[C@@]32CCCc3sc(N)c(C#N)c32)n1)[C@@H]1CCCN1C [II-125],68,1370,–,–,–
[2H]C([2H])([2H])N1C[C@H](F)C[C@H]1[C@H](C)Oc1cc(N2CCN(C([2H])([2H])[2H])C3(CC3)C2)nc(-c2noc3c2CCC[C@@]32CCCc3sc(N)c(C#N)c32)n1 [II-207],–,82,–,785,–
CC(C)[C@@H]1CN(c2cc(O[C@@H](C)[C@@H]3CCCN3C)nc(-c3noc4c3CCC[C@@]43CCCc4sc(N)c(C#N)c43)n2)CCN1 [II-166],–,1280,–,–,–
C[C@H](Oc1cc(N2C[C@@H]3[C@@H](N)[C@@H]3C2)nc(-c2noc3c2CCC[C@@]32CCCc3sc(N)c(C#N)c32)n1)[C@@H]1CCCN1C [II-167],–,4230,–,–,–
C[C@H](Oc1cc([C@H]2CCNC2)nc(-c2noc3c2CCC[C@@]32CCCc3sc(N)c(C#N)c32)n1)[C@@H]1CCCN1C [II-163],–,935,–,–,–
COc1c(O[C@@H](C)[C@@H]2CCCN2C)nc(-c2noc3c2CCC[C@@]32CCCc3sc(N)c(C#N)c32)nc1-n1ccc(C(N)=O)n1 [II-159],–,1890,–,–,–
C[C@H]1CNCCCN1c1cc(-n2ccnc2)nc(-c2noc3c2CCC[C@@]32CCCc3sc(N)c(C#N)c32)n1 [II-142],–,10100,–,–,–
C[C@H](Oc1cc(-n2cc(C(=O)N(C)C)nn2)nc(-c2noc3c2CCC[C@@]32CCCc3sc(N)c(C#N)c32)n1)[C@@H]1CCCN1C [II-132],70,5110,–,–,–
C[C@@H]1CN(c2cc(O[C@@H](C)[C@@H]3CCCN3C)nc(-c3noc4c3CCC[C@@]43CCCc4sc(N)c(C#N)c43)n2)CCN1 [II-161],–,1600,–,–,–
C[C@H](O)Cn1ncc(-c2cc(O[C@@H](C)[C@@H]3CCCN3C)nc(-c3noc4c3CCC[C@@]43CCCc4sc(N)c(C#N)c43)n2)n1 [II-134],76,9670,–,–,–

# Second part, the molecule after the results:
MBI 3A4 [1] [%],IC50 [2] [nM],"IC50 [3, 4] [nM]","IC50 [3, 5] [nM]","IC50 ([3]; MKN-1, assay 2, CTG 120 h, read-out: MKN1 (assay 2) IC50) [nM]",SMILES
–,188,24,12,–,CC(C)NC(=O)Cc1ccn(-c2cc(O[C@@H](C)[C@@H]3CCCN3C)nc(-c3noc4c3CCC[C@@]43CCCc4sc(N)c(C#N)c43)n2)n1 [II-182]
–,143,–,15,–,CO[C@H]1CCN(C)[C@@H]1[C@H](C)Oc1cc(-n2ccc(C(=O)N[C@H]3CCOC3)n2)nc(-c2noc3c2CCC[C@@]32CCCc3sc(N)c(C#N)c32)n1 [II-198]
–,248,–,17,–,CO[C@H]1CCN(C)[C@@H]1[C@H](C)Oc1cc(-n2ccc(C(=O)N[C@@H](C)c3ccccn3)n2)nc(-c2noc3c2CCC[C@@]32CCCc3sc(N)c(C#N)c32)n1 [II-196]
–,1150,19,18,–,C[C@H](Oc1cc(-n2ccc(C3(O)COC3)n2)nc(-c2noc3c2CCC[C@@]32CCCc3sc(N)c(C#N)c32)n1)[C@@H]1CCCN1C [II-189]
–,297,–,22,–,C[C@H](Oc1cc(-n2ccc(-c3cn([C@@H]4CCOC4)nn3)n2)nc(-c2noc3c2CCC[C@@]32CCCc3sc(N)c(C#N)c32)n1)[C@@H]1CCCN1C [II-211]
–,170,–,17,–,C[C@H](Oc1cc(-n2ccc(-c3cn([C@H]4CCOC4)nn3)n2)nc(-c2noc3c2CCC[C@@]32CCCc3sc(N)c(C#N)c32)n1)[C@@H]1CCCN1C [II-212]
–,446,–,51,–,CO[C@H]1CCN(C)[C@@H]1[C@H](C)Oc1cc(-n2ccc(C(=O)N(C)C3COC3)n2)nc(-c2noc3c2CCC[C@@]32CCCc3sc(N)c(C#N)c32)n1 [II-199]
74,2080,–,–,–,C[C@H](Oc1cc(-c2ccn(C[C@H]3CCOC3)n2)nc(-c2noc3c2CCC[C@@]32CCCc3sc(N)c(C#N)c32)n1)[C@@H]1CCCN1C [II-129]
–,210,–,37,–,C[C@H](Oc1cc(-n2ccc(-c3cn(C4CCOCC4)nn3)n2)nc(-c2noc3c2CCC[C@@]32CCCc3sc(N)c(C#N)c32)n1)[C@@H]1CCCN1C [II-210]
–,380,–,27,–,C[C@H](Oc1cc(-n2cc3ccn([C@H]4CCOC4)c(=O)c3n2)nc(-c2noc3c2CCC[C@@]32CCCc3sc(N)c(C#N)c32)n1)[C@@H]1CCCN1C [II-202]
–,162,–,41,–,CO[C@H]1CCN(C)[C@@H]1[C@H](C)Oc1cc(-n2ccc(CC(=O)NC(C)C)n2)nc(-c2noc3c2CCC[C@@]32CCCc3sc(N)c(C#N)c32)n1 [II-183]
–,340,–,11,–,COCCNC(=O)c1ccn(-c2cc(O[C@@H](C)[C@@H]3[C@@H](OC)CCN3C)nc(-c3noc4c3CCC[C@@]43CCCc4sc(N)c(C#N)c43)n2)n1 [II-200]
–,226,–,16,–,CO[C@H]1CCN(C)[C@@H]1[C@H](C)Oc1cc(-n2ccc(C(=O)N[C@@H]3CCOC3)n2)nc(-c2noc3c2CCC[C@@]32CCCc3sc(N)c(C#N)c32)n1 [II-197]
–,411,20,25,–,C[C@H](Oc1cc(-n2ccc(C(=O)N(C)C3COC3)n2)nc(-c2noc3c2CCC[C@@]32CCCc3sc(N)c(C#N)c32)n1)[C@@H]1CCCN1C [II-194]
–,194,–,34,–,C[C@H](Oc1cc(-n2cc3ccn(C4CCOCC4)c(=O)c3n2)nc(-c2noc3c2CCC[C@@]32CCCc3sc(N)c(C#N)c32)n1)[C@@H]1CCCN1C [II-206]
74,2760,–,–,–,C[C@H](Oc1cc(-c2ccn([C@H]3CCOC3)n2)nc(-c2noc3c2CCC[C@@]32CCCc3sc(N)c(C#N)c32)n1)[C@@H]1CCCN1C [II-127]
–,8,–,68,227,CO[C@H]1CCN(C)[C@@H]1[C@H](C)Oc1cc(N2CCNC3(CC3)C2)nc(-c2noc3c2CCC[C@@]32CCCc3sc(N)c(C#N)c32)n1 [II-184]
–,425,–,–,–,C[C@H](NC(=O)c1ccn(-c2cc(O[C@@H](C)[C@@H]3CCCN3C)nc(-c3noc4c3CCC[C@@]43CCCc4sc(N)c(C#N)c43)n2)n1)c1ccccn1 [II-191]
56,10200,–,–,–,C[C@H](Oc1cc(-n2cnc(C(=O)N(C)C)c2)nc(-c2noc3c2CCC[C@@]32CCCc3sc(N)c(C#N)c32)n1)[C@@H]1CCCN1C [II-126]
